Measured values as given in publication PMC7613515, “Reading and erasing of the phosphonium analogue of trimethyllysine by epigenetic proteins” (Communications Chemistry, 2022).

Assays:
BPTFPHD (L2583–N2751) = target: T1, BPTFPHD (L2583–N2751) (Homo sapiens, UniProt Q12830); assay: ITC, association of histone H3 peptides with BPTFPHD; assay type: binding
T1 construct: BPTFPHD (L2583–N2751); made in house; host or cells: E. coli
Description: Isothermal titration calorimetric (ITC) analyses were used to determine the dissociation constant (Kd), the Gibbs free energy of binding (ΔG°), the enthalpy of binding (ΔH°), and the entropy of binding (ΔS°).
ITC studies followed a reported procedure[26]. The buffer used corresponded to that used in the final protein purification step. Briefly, TAF3PHD and KDM4ATTD: [Tris (50 mM) in water (pH 7.5)]; KDM5APHD3 and BTPFPHD: [Tris (50 mM), NaCl (20 mM) in water (pH 7.5)]; [Tris (25 mM), NaCl (50 mM), 1,4-dithiothreitol (1.0 mM) in water (pH 7.5)]. Experiments were conducted using ITC200 automated (GE Healthcare Life Sciences, USA) instrument at 25 °C. Histone peptide titrations were performed with the same reader batches. Solutions of the reader in buffer (25–40 µM) and of the histone H3 peptide (350–600 µM) in buffer were prepared. The prepared solutions were plated into a 96-well plate and inserted into the instrument for analysis. Experiments were performed according to manufacturer’s default settings: Plate pre-rinse syringe clean. A total of 19 injections were performed; each experiment was repeated 3–5 times. Heats of dilution for histone peptides determined in control experiments were subtracted from the titration binding data.

KDM3AJmjC (T515–S1317) = assay: MALDI-TOF demethylation assay, KDM3AJmjC; assay type: biochemical; conditions: 1 hr
Description: (§1) To investigate whether H3KP9me3 can be demethylated by other human KDM4 subfamily members, recombinant KDM4AJmjC (M1–L359) and KDM4DJmjC (M1–L358) were produced in E. coli following an adaption of literature procedures[38],[39]. […] To test the ability of KDM3 and KDM7 subfamily representatives to demethylate H3KP9me2 or H3KP9me3, KDM3AJmjC (T515–S1317) and KDM7BJmjC (M37–N483) were produced using baculovirus/sf9 and E. coli expression systems, respectively[40],[41]. The synthesis of a histone H3 mimic peptide H3KP9me2 substrate is challenging as the tri-alkylated phosphine group is susceptible to oxidation during synthesis of the protected amino acid and during SPPS requiring oxygen-free conditions. Thus, to investigate if KDM3AJmjC or KDM7BJmjC can catalyse demethylation of H3KP9me2, an appropriate H3KP9me2 substrate was prepared in situ from H3KP9me3 using KDM4EJmjC (2.0 µM), in the presence of KDM3AJmjC (2.0 µM) or KDM7BJmjC (2.0 µM).
(§2) A Bruker Daltonics MALDI-TOF/TOF AutoflexSpeed machine and Bruker MTP 384 target plates (polished steel BC, Part: 8280781) were used. The machine was controlled using Flex control (v. 3.4 build 135.10) and Compass for flex series (v. 1.4) software. Measurements were in the positive ion mode with the reflectron mode enabled. […] Samples were then analysed by MALDI-TOF. […]

KDM4EJmjC (M1–Q337) = target: T2, KDM4EJmjC (M1–Q337) (Homo sapiens, UniProt B2RXH2); assay: LC-MS demethylation assay, KDM4EJmjC; assay type: biochemical; conditions: LC-MS time-course, KDM4EJmjC 0.5 µM, peptide 5.0 µM, 22 °C
T2 construct: We chose human KDM4EJmjC (M1–Q337); made in house
T2 sequence (B2RXH2 1-337): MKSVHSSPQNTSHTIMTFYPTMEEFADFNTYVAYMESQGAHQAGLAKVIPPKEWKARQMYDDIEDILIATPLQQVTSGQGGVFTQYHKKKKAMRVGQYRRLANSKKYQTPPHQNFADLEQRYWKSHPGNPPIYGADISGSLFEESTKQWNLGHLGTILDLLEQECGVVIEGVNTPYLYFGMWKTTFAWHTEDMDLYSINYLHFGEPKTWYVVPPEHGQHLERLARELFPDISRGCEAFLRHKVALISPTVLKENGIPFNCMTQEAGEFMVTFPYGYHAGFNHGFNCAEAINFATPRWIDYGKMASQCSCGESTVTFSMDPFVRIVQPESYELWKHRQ
Description: KDM4EJmjC demethylation studies of H3_1-15K9me3 or H3_1-15KP9me3 incubations using LC-MS were conducted as reported[31], using Agilent RapidFire 365 and Agilent QTOF 6530 machines. In brief, samples were aspirated under vacuum (~50 µL), passed through a loop (10 µL, 400 ms) and wash on a SPE cartridge A (C4) using solvent A (1.5 mL·min^−1, 4500 ms). Peptides were eluted using solvent B (1.25 mL·min^−1, 4500 ms) and directed to the MS for measurements. The cartridge was equilibrated for the next sample (1.25 mL·min^−1, 500 ms) and needle was cleaned with an organic wash solution. Between each sample, an alternating inorganic, organic and inorganic washes were performed to avoid any potential carry over on the SPE cartridge from previous sample. Solvent A: formic acid (0.1%) in water; Solvent B: formic acid (0.1%), acetonitrile (85%) in water; Inorganic wash: water; Organic wash: acetonitrile. Demethylation reactions were conducted in a temperature-controlled room (22 °C) and the MS machine Real-time monitoring mode. A solution [Peptide (6.0 µM), sodium L-ascorbate (600 µM), (NH4)2Fe(II)(SO4)2 (60 µM), disodium 2OG salt (120 µM) in buffer] […] (100 µL) was added and samples from the solution were taken every 2–2.5 min and measured. Note that the time was recorded between the addition and the first aspiration of the enzymatic reaction mixture [Peptide and Enzyme solution mixture]. […]

KDM4AJmjC (M1–L359) = assay: MALDI-TOF demethylation assay, KDM4AJmjC; assay type: biochemical, human; conditions: KDM4AJmjC 2.4 µM, peptide 5.0 µM, 1 hr, duplicates
Description: as §1, §2

[1] = 25 °C, H3 1-10 peptide, Tris (50 mM), NaCl (20 mM), pH 7.5, from 3 to 5 experiments, ± SD

Compound | -TΔS° (BPTFPHD (L2583–N2751); [1]) [kcal/mol] | ΔG° (BPTFPHD (L2583–N2751); [1]) [kcal/mol] | ΔH° (BPTFPHD (L2583–N2751); [1]) [kcal/mol] | fold stronger binding (ΔKd), H3KP4me3 versus H3K4me3 (BPTFPHD (L2583–N2751); BPTFPHD) | demethylation in combination with KDM4EJmjC (KDM3AJmjC (T515–S1317); KDM3AJmjC 2.0 µM plus KDM4EJmjC 2.0 µM, peptide 5.0 µM) | demethylation (KDM3AJmjC (T515–S1317); KDM3AJmjC 2.0 µM, H3KP9me2 prepared in situ with KDM4EJmjC) | demethylation (KDM4EJmjC (M1–Q337)) | demethylation (KDM4AJmjC (M1–L359))
C[C@H](N)C(=O)N[C@@H](CCCNC(=N)N)C(=O)N[C@H](C(=O)N[C@@H](CCCC[P+](C)(C)C)C(=O)N[C@@H](CCC(N)=O)C(=O)N[C@H](C(=O)N[C@@H](C)C(=O)N[C@@H](CCCNC(=N)N)C(=O)N[C@@H](CCCCN)C(=O)N[C@@H](CO)C(N)=O)[C@@H](C)O)[C@@H](C)O [H3KP4me3] | 4.7 ± 0.1 | -9.1 ± 0.1 | -13.8 ± 0.1 | ~ 7 fold | – | – | – | –
ARTKQTAR(KPme3)STGGKA [H3KP9me3, histone H3 residues 1–15 with trimethylphosphonium lysine analogue at position 9] | – | – | – | – | produced H3KP9me2 (due to KDM4EJmjC catalysis), but did not result in masses consistent with H3KP9me1 or H3KP9 | do not catalyse demethylation of H3K9me3 (as anticipated) or H3KP9me3 | both are substrates | substantial turnover to H3KP9me2
